Where a name gives a salt, the structure may show the parent alone.

Sequence of interaction between p53 and MDM2 proteins (recombinant GST-tagged MDM2 / biotinylated p53 peptide) (Q00987 whole entry): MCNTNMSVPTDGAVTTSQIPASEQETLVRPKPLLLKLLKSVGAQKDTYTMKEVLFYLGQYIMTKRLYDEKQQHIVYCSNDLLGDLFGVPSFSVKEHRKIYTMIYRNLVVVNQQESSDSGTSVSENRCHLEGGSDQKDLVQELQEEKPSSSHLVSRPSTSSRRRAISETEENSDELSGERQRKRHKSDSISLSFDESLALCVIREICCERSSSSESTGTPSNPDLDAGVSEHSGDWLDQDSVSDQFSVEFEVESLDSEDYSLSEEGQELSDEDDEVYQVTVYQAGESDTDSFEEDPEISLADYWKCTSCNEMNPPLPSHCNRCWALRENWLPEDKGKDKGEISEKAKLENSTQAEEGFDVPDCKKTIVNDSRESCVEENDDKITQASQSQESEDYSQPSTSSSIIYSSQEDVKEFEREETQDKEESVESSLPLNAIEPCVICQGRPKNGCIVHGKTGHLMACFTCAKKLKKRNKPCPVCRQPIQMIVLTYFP

The assay addresses interaction between p53 and MDM2 proteins (recombinant GST-tagged MDM2 / biotinylated p53 peptide) (Homo sapiens, UniProt Q00987). Nature of the assay: HTRF (homogeneous time-resolved fluorescence) assay of p53-MDM2 interaction inhibition. It counts as binding. Particulars: bsa: 0.02%. The method, then:
The ability of the compounds to inhibit the interaction between p53 and MDM2 proteins was measured by an HTRF (homogeneous time-resolved fluorescence) assay in which recombinant GST-tagged MDM2 binds to a peptide that resembles the MDM2-interacting region of p53. Binding of GST-MDM2 protein and p53-peptide (biotinylated on its N-terminal end) is registered by the FRET (fluorescence resonance energy transfer) between Europium (Eu)-labeled anti-GST antibody and streptavidin-conjugated Allophycocyanin (APC).
[…] Add 10 uL diluted compounds (1:5 dilution in reaction buffer) to each well, mix by shaking Add 20 uL biotinylated p53 peptide (180 nM working solution) in reaction buffer to each well and mix on shaker. Incubate at 37° C. for 1 h. Add 20 uL streptavidin-APC and Eu-anti-GST antibody mixture (6 nM Eu-anti-GST and 60 nM streptavidin-APC working solution) in TBS buffer with 0.2% BSA, shake at room temperature for 30 minutes and read using a TRF-capable plate reader at 665 and 615 nm (Victor 5; Perkin Elmer Wallac). If not specified, the reagents were purchased from Sigma Chemical Co.
As a reminder, the IC50 is the point on the concentration scale where inhibition reaches its midpoint. In the case of `CC(C)(C)C[C@@H]1N[C@@H](CO)[C@H](c2cccc(Cl)c2)[C@@]1(C#N)c1ccc(Cl)cc1` (racemic) [Example 1, rac(2S,3R,4R,5R)-4-(3-chloro-phenyl)-3-(4-chloro-phenyl)-2-(2,2-dimethyl-propyl)-5-hydroxymethyl-pyrrolidine-3-carbonitrile], the IC50 was found to be 2860 nM. Turning to `CC(C)(C)C[C@@H]1N(CC[C@@H](O)[C@H](O)[C@H](O)CO)[C@@H](CO)[C@H](c2cccc(Cl)c2)[C@@]1(C#N)c1ccc(Cl)cc1` (racemic) [Example 2, rac(2S,3R,4R,5R)-4-(3-chloro-phenyl)-3-(4-chloro-phenyl)-2-(2,2-dimethyl-propyl)-5-hydroxymethyl-1-((3R,4S,5R)-3,4,5,6-tetrahydroxy-hexyl)-pyrrolidine-3-carbonitrile], the half-maximal inhibitory concentration (IC50) came to 740 nM. Turning to `CC(C)(C)C[C@@H]1N[C@@H](CO)[C@H](c2cccc(Cl)c2F)[C@@]1(C#N)c1ccc(Cl)cc1F` (racemic) [Example 3, rac(2S,3R,4S,5R)-4-(3-chloro-2-fluoro-phenyl)-3-(4-chloro-2-fluoro-phenyl)-2-(2,2-dimethyl-propyl)-5-hydroxymethyl-pyrrolidine-3-carbonitrile], the IC50 came out at 971 nM. Consider `CC(C)(C)C[C@@H]1N(CC[C@@H](O)[C@H](O)[C@H](O)CO)[C@@H](CO)[C@H](c2cccc(Cl)c2F)[C@@]1(C#N)c1ccc(Cl)cc1F` (racemic) [Example 4, rac(2S,3R,4S,5R)-4-(3-chloro-2-fluoro-phenyl)-3-(4-chloro-2-fluoro-phenyl)-2-(2,2-dimethyl-propyl)-5-hydroxymethyl-1-((3R,4S,5R)-3,4,5,6-tetrahydroxy-hexyl)-pyrrolidine-3-carbonitrile], for which the IC50 was 164 nM. In the case of `CC(C)(C)C[C@@H]1N(CCCc2ccc(C(=O)O)cc2)[C@@H](CO)[C@H](c2cccc(Cl)c2F)[C@@]1(C#N)c1ccc(Cl)cc1F` [Example 5, 4-{3-[(2S,3R,4S,5R)-4-(3-chloro-2-fluoro-phenyl)-3-(4-chloro-2-fluoro-phenyl)-3-cyano-2-(2,2-dimethyl-propyl)-5-hydroxymethyl-pyrrolidin-1-yl]-propyl}-benzoic acid] it was 212 nM. For the molecule `CCOC(=O)c1ccc(CCCN2[C@@H](CC(C)(C)C)[C@](C#N)(c3ccc(Cl)cc3F)[C@@H](c3cccc(Cl)c3F)[C@@H]2CO)cc1` [Example 6, 4-{3-[(2S,3R,4S,5R)-4-(3-chloro-2-fluoro-phenyl)-3-(4-chloro-2-fluoro-phenyl)-3-cyano-2-(2,2-dimethyl-propyl)-5-hydroxymethyl-pyrrolidin-1-yl]-propyl}-benzoic acid ethyl ester], the IC50 stood at 4130 nM. Take `CC(C)(C)C[C@@H]1N[C@@H](CO)[C@H](c2cccc(Cl)c2F)[C@@]1(C#N)c1ccc(Cl)cc1F` [Example 7, (2S,3R,4S,5R)-4-(3-chloro-2-fluoro-phenyl)-3-(4-chloro-2-fluoro-phenyl)-2-(2,2-dimethyl-propyl)-5-hydroxymethyl-pyrrolidine-3-carbonitrile]: the IC50 turned out to be 182 nM. For the molecule `CCOC(=O)C1CC1CN1[C@@H](CC(C)(C)C)[C@](C#N)(c2ccc(Cl)cc2F)[C@@H](c2cccc(Cl)c2F)[C@@H]1CO` (stereo partly drawn) [Example 8, 2-[(2S,3R,4S,5R)-4-(3-chloro-2-fluoro-phenyl)-3-(4-chloro-2-fluoro-phenyl)-3-cyano-2-(2,2-dimethyl-propyl)-5-hydroxymethyl-pyrrolidin-1-ylmethyl]-cyclopropanecarboxylic acid ethyl ester], the IC50 turned out to be 2320 nM. Take `CC(C)(C)C[C@@H]1N(Cc2ccc(OCCO)cc2)[C@@H](CO)[C@H](c2cccc(Cl)c2F)[C@@]1(C#N)c1ccc(Cl)cc1F` [Example 9, (2S,3R,4S,5R)-4-(3-chloro-2-fluoro-phenyl)-3-(4-chloro-2-fluoro-phenyl)-2-(2,2-dimethyl-propyl)-1-[4-(2-hydroxy-ethoxy)-benzyl]-5-hydroxymethyl-pyrrolidine-3-carbonitrile]: the IC50 came out at 2110 nM. In the case of `CC(C)(C)C[C@@H]1N(C[C@@H]2C[C@H]2C(=O)O)[C@@H](CO)[C@H](c2cccc(Cl)c2F)[C@@]1(C#N)c1ccc(Cl)cc1F` [Example 10a, (1R,2R)-2-[(2S,3R,4S,5R)-4-(3-chloro-2-fluoro-phenyl)-3-(4-chloro-2-fluoro-phenyl)-3-cyano-2-(2,2-dimethyl-propyl)-5-hydroxymethyl-pyrrolidin-1-ylmethyl]-cyclopropanecarboxylic acid] it was 87 nM; in that of `CC(C)(C)C[C@@H]1N(CC#C[Si](C)(C)C)[C@@H](CO)[C@H](c2cccc(Cl)c2F)[C@@]1(C#N)c1ccc(Cl)cc1F` [Example 11, (2S,3R,4S,5R)-4-(3-Chloro-2-fluoro-phenyl)-3-(4-chloro-2-fluoro-phenyl)-2-(2,2-dimethyl-propyl)-5-hydroxymethyl-1-(3-trimethylsilanyl-prop-2-ynyl)-pyrrolidine-3-carbonitrile], 1080 nM; in that of `CC(C)(C)C[C@@H]1N(CCCc2ccc(C(N)=O)cc2)[C@@H](CO)[C@H](c2cccc(Cl)c2F)[C@@]1(C#N)c1ccc(Cl)cc1F` [Example 12, 4-{3-[(2S,3R,4S,5R)-4-(3-chloro-2-fluoro-phenyl)-3-(4-chloro-2-fluoro-phenyl)-3-cyano-2-(2,2-dimethyl-propyl)-5-hydroxymethyl-pyrrolidin-1-yl]-propyl}-benzamide trifluoroacetate salt], 1520 nM.

For `Cc1ccc(CCCN2[C@@H](CC(C)(C)C)[C@](C#N)(c3ccc(Cl)cc3F)[C@@H](c3cccc(Cl)c3F)[C@@H]2CO)o1` [Example 13, (2S,3R,4S,5R)-4-(3-chloro-2-fluoro-phenyl)-3-(4-chloro-2-fluoro-phenyl)-2-(2,2-dimethyl-propyl)-5-hydroxymethyl-1-[3-(5-methyl-furan-2-yl)-propyl]-pyrrolidine-3-carbonitrile trifluoroacetate salt], the concentration for half-maximal inhibition (IC50) was determined as 1670 nM. Take `C#CCN1[C@@H](CC(C)(C)C)[C@](C#N)(c2ccc(Cl)cc2F)[C@@H](c2cccc(Cl)c2F)[C@@H]1CO` [Example 14, (2S,3R,4S,5R)-4-(3-chloro-2-fluoro-phenyl)-3-(4-chloro-2-fluoro-phenyl)-2-(2,2-dimethyl-propyl)-5-hydroxymethyl-1-prop-2-ynyl-pyrrolidine-3-carbonitrile]: the IC50 worked out at 2360 nM.

Turning to `COC(=O)c1ccc(C#CCN2[C@@H](CC(C)(C)C)[C@](C#N)(c3ccc(Cl)cc3F)[C@@H](c3cccc(Cl)c3F)[C@@H]2CO)cc1F` [Example 15, 4-{3-[(2S,3R,4S,5R)-4-(3-chloro-2-fluoro-phenyl)-3-(4-chloro-2-fluoro-phenyl)-3-cyano-2-(2,2-dimethyl-propyl)-5-hydroxymethyl-pyrrolidin-1-yl]-prop-1-ynyl}-2-fluoro-benzoic acid methyl ester], the IC50 amounted to 887 nM. Take `CC(C)(C)C[C@@H]1N(CCCC2CCOCC2)[C@@H](CO)[C@H](c2cccc(Cl)c2F)[C@@]1(C#N)c1ccc(Cl)cc1F` [Example 16, (2S,3R,4S,5R)-4-(3-chloro-2-fluoro-phenyl)-3-(4-chloro-2-fluoro-phenyl)-2-(2,2-dimethyl-propyl)-5-hydroxymethyl-1-[3-(tetrahydro-pyran-4-yl)-propyl]-pyrrolidine-3-carbonitrile]: the IC50 was 489 nM. In the case of `CC(C)(C)C[C@@H]1N(CCCc2cn(C(c3ccccc3)(c3ccccc3)c3ccccc3)cn2)[C@@H](CO)[C@H](c2cccc(Cl)c2F)[C@@]1(C#N)c1ccc(Cl)cc1F` [Example 17, (2S,3R,4S,5R)-4-(3-chloro-2-fluoro-phenyl)-3-(4-chloro-2-fluoro-phenyl)-2-(2,2-dimethyl-propyl)-5-hydroxymethyl-1-[3-(1-trityl-1H-imidazol-4-yl)-propyl]-pyrrolidine-3-carbonitrile], the IC50 was determined as 215 nM. Regarding `CC(C)(C)C[C@@H]1N(CC#Cc2ccc(C(=O)O)c(F)c2)[C@@H](CO)[C@H](c2cccc(Cl)c2F)[C@@]1(C#N)c1ccc(Cl)cc1F` [Example 18, 4-{3-[(2S,3R,4S,5R)-4-(3-chloro-2-fluoro-phenyl)-3-(4-chloro-2-fluoro-phenyl)-3-cyano-2-(2,2-dimethyl-propyl)-5-hydroxymethyl-pyrrolidin-1-yl]-prop-1-ynyl}-2-fluoro-benzoic acid], the IC50 is 70.8 nM.

Consider “(1S,2S)-2-[(2S,3R,4S,5R)-4-(3-chloro-2-fluoro-phenyl)-3-(4-chloro-2-fluoro-phenyl)-3-cyano-2-(2,2-dimethyl-propyl)-5-hydroxymethyl-pyrrolidin-1-ylmethyl]-cyclopropanecarboxylic acid [Example 10b]”, for which the 50% inhibitory concentration (IC50) came out at 242 nM.

For the origin of these results see patent US20120149660A1, “NOVEL N-SUBSTITUTED 5-HYDROXYPYROLLINDES AS INHIBITORS OF MDM2-P53 INTERACTIONS” (priority 2010, published 2012).
